Reference: paper PMC8592027, “Structure-Guided Design of D-Galactal Derivatives with High Affinity and Selectivity for the Galectin-8 N-Terminal Domain” (ACS Medicinal Chemistry Letters, 2021)
“Also recorded” adds a separate entry of the source.

How the values were obtained:
[1] = target: T1, galectin-4C (C-terminal domain) (Homo sapiens, UniProt P56470); experiment: Competitive fluorescence polarization assay, galectin-4C; format: binding; conditions: mean ± SEM of n = 4–8
T1 construct: galectins (N = N-terminal domain, C = C-terminal domain); made in house
T1 sequence (P56470 194-323 limits assumed): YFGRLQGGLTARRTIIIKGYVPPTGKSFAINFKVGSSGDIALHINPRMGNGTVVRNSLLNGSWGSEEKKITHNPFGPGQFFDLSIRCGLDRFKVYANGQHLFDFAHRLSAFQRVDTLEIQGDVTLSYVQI
Experimental: (§1) 1. Competitive fluorescence polarization experiments:
(§2) Human galectins -1, -3, -4N, -4C, -7, -8N, -9N, and -9C were expressed and purified as previously described 30,41. Fluorescence polarisation experiments were performed using the PHERAstar FS plat e reader (software version 2.10 R3), and the fluorescence anisotropy of fluorescein tagged probes was measured by excitation at 485 nm and emission at 520 nm. The specific conditions for galectins -1, -3, -4N, -4C, -7, -8N, -9N, and -9C were kept as report ed30,41,42. The synthesised compounds were dissolved in pure DMSO at 20 mM concentration and diluted in PBS to 3-6 different concentrations, and each concentration was tested in duplicate. The highest inhibitor concentrations tested were 1.5 mM. The

[2] = target: T2, galectin-9C (C-terminal domain) (Homo sapiens, UniProt O00182); experiment: Competitive fluorescence polarization assay, galectin-9C; format: binding; conditions: mean ± SEM of n = 4–8
T2 construct: galectins (N = N-terminal domain, C = C-terminal domain); made in house
Experimental: as §1, §2

[3] = tested on: IL-6 secretion from MDA-MB-231 cells; experiment: Multiplexed cytokine assay, IL-6 secretion; format: cell-based, human; conditions: 24 hours, vs untreated cells
Experimental: Figure 5 Effect of compounds 1 and 6a on the secretion of IL-6 and IL-8 expressed in pg/mL. The effects were measured after incubating the cells with the compounds at 10 and 100 μM. Compounds 1 and 6a reduce the secretion of IL-6 and IL-8 in a dose-dependent manner at 100 and 10 μM. Results shown are means ± SEM of three independent experiments. ns, not significant (p > 0.05); *p < 0.05 versus untreated controls.
Metabolic activity assay: […]
(§3) Briefly, the cells were treated with the selected compounds in 0.1% dimethyl sulfoxide (DMSO; vehicle), 0.1% DMSO (control vehicle), or medium (control) and seeded at a cell density of 5,500 cells/well (MDA-MB-231 cells) or 4 x 10^4 cells/well (K562 cells), 7000 cells/well (HepG2 cells) or 1 x 10^5 cells/well (human PBMCs) in duplicates (MDA-MB-231, K562, and […]) or triplicates for HepG2 cells (100 µL), in sterile 96-well plates. For the MDA-MB-231 and HepG2, the cells were left to adhere overnight before adding the compounds. The plates were then incubated for 24 hours (48 hours for HepG2), after which 15 µL of MTS reagent was added to each well. […]
HTX Multi-Mode; BioTek Instruments, Inc., VT, USA).
Multiplexed cytokine assay:
MDA-MB-231 cells were seeded in 96-well flat-bottom plates at a density of 2 x 10^4 cells/well in 100 µL of medium and allowed to adhere for 24 hours at 37 °C and 5% CO2. The medium was then replaced by a fresh medium containing the desired concentrations of compounds 1 and 6a, after which the cells were cells incubated again for 24 hours at 37 °C and 5% CO2. Cell-free supernatants were collected and stored at – 80 °C before the analysis. The cytokines secretion was assessed by BD Cytometric Bead Array Human inflammatory cytokine Kit (content: IL-1, IL-6, IL-8, IL-10, IL-12p). The flow cytometric analyses were performed on an Attune NxT flow cytometer (Thermo Fisher Scientific, Waltham, MA, USA). Standard curves were generated using recombinant cytokines provided in the kit, and the data were analyzed with FlowJo software (Tree Star, Inc., Ashland, OR). The results are expressed in pg/mL. Data are represented as means ± standard deviation (SD) from three representative independent experiments.
(§4) All experiments were performed at least twice, with average values expressed as means ± SD. All data were analyzed with the statistical software GraphPad Prism 8.0 (GraphPad Software, Inc., CA, USA). by one-way ANOVA followed with Dunnett’s multiple compar ison test. Differences were considered non-significant for p > 0.05, and significant (*) for p < 0.05.

galectin-7 = target: T3, galectin-7 (Homo sapiens, UniProt P47929); experiment: Competitive fluorescence polarization assay, galectin-7; format: binding; conditions: mean ± SEM of n = 4–8
T3 construct: made in house
Experimental: as §1, §2

galectin-1 = target: T4, galectin-1 (Homo sapiens, UniProt P09382); experiment: Competitive fluorescence polarization assay, galectin-1; format: binding; conditions: mean ± SEM of n = 4–8
T4 construct: made in house
Experimental: as §1, §2

[4] = tested on: MDA-MB-231 cancer cell line; experiment: MTS metabolic activity (cytotoxicity) assay, MDA-MB-231; format: cell-based, human; conditions: concentrations 1 to 100 μM, 24 hours
Experimental: We have investigated the cytotoxicity of the compounds 1, 6a, and 6c via a (3-(4,5-dimethylthiazol-2-yl)-5-(3-carboxymethoxyphenyl)-2-(4-sulfophenyl)-2H-tetrazolium) (MTS) assay in K562 and MDA-MB-231 cancer cell lines to establish the direct antitumor activity of compounds, as well as human peripheral blood mononuclear cells (PBMCs), to evaluate their safety.
Metabolic activity assay:
as §3, with “The metabolic activities of the cell lines were determined using the CellTiter 96 Aqueous One Solution cell proliferation assay (MTS Reagents, Promega, Madison, WI, USA), according to the manufacturer instructions. Briefly,” for “Briefly,”, “well. After 30-90 minute of incubation, the absorbance was measured at 492 nm using a microplate reader (Synergy HTX Multi-Mode; BioTek Instruments, Inc., VT, USA).” for “well.”
Bead Array Human inflammatory cytokine Kit (content: IL-1, IL-6, IL-8, IL-10, IL-12p). The flow cytometric analyses were performed on an Attune NxT flow cytometer (Thermo Fisher Scientific, […]
Data are represented as means ± standard deviation (SD) from three representative independent experiments.
as §4, with “0.05. […]” for “0.05.”

T2 sequence (O00182 227-355 limits assumed): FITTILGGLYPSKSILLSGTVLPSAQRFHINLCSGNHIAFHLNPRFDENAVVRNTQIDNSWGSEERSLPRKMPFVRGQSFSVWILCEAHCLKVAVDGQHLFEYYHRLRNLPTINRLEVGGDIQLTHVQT
T3 sequence (P47929 whole entry): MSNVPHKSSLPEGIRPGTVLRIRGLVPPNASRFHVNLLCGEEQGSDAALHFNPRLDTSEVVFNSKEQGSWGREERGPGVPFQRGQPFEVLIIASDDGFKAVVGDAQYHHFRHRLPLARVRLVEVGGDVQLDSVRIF
T4 sequence (P09382 whole entry): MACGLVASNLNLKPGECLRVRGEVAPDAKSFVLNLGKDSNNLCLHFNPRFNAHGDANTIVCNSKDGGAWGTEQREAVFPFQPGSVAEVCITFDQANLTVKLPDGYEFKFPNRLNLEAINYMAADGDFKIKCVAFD

With `Cn1c(CO[C@@H]2C=CO[C@H](CO)[C@@H]2O)nc2ccc(C(=O)O)cc21` [6a] the Kd [1] was 1.7 ± 0.15 mM, the Kd [2] was over 1.5 mM and the “reduction in IL-6 secretion” value ([3]; 10 μM, effect not significant) was “about 15%”. The “reduction of IL-6 secretion” value ([3]; 100 μM) was “about 65%”, the Kd (galectin-7) was over 1.5 mM and the Kd (galectin-1) was 1.3 ± 0.13 mM. The “cell viability (MTS), MDA-MB-231” value [4] was “None of the compounds decreased the viability; also recorded: no effect on the viability”.
